Measurements: ChEMBL document CHEMBL1136731, “Synthesis and biological evaluation of non-peptidic cyclophilin ligands” (J Med Chem, 2003)

Key:
[1] = target: Peptidyl-prolyl cis-trans isomerase A (Rattus norvegicus) (UniProt P10111); experiment: In vitro inhibition of the rotamase activity of cyclophilin A (CyPA) […]
[2] = target: Peptidyl-prolyl cis-trans isomerase A (Rattus norvegicus, UniProt P10111); experiment: In vitro inhibition of the rotamase activity of cyclophilin A (CyPA)
Sequence of Peptidyl-prolyl cis-trans isomerase A (P10111 whole entry): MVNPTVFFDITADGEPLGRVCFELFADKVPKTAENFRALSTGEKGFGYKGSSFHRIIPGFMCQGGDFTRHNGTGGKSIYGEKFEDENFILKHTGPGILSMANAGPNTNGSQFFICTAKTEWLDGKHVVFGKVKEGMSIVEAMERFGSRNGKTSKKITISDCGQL

Sequence of Peptidyl-prolyl cis-trans isomerase A (Rattus norvegicus) (P10111 whole entry): as above

inhibition [1] [%]	IC50 [2] [nM]	SMILES
11		O=C(NCc1ccccc1)NC1CCCC(NC(=O)NCc2ccccc2)C1 (stereo not drawn)
	3350	O=C(NCc1ccccc1)Nc1cccc(NC(=O)c2cc(Cl)cc(Cl)c2)c1
	1180	O=C(Nc1ccccc1)Nc1cccc(NC(=O)c2cc(Cl)cc(Cl)c2)c1
100	4550	O=C(Nc1cccc2ccccc12)NC1CCCC(NC(=O)Nc2cccc3ccccc23)C1 (stereo not drawn)
100		O=C(Nc1ccc(Br)cc1Br)NC1CCCC(NC(=O)Nc2ccc(Br)cc2Br)C1 (stereo not drawn)
38		N#Cc1cccc(NC(=O)Nc2cccc(NC(=O)Nc3cccc(C#N)c3)c2)c1
40		Cc1ccc(NC(=O)NC2CCCC(NC(=O)Nc3ccc(C)cc3C)C2)c(C)c1 (stereo not drawn)
98	2900	CN(C)c1ccc(NC(=O)Nc2cc(NC(=O)Nc3ccc(N(C)C)cc3)c(Br)cc2Br)cc1
100		O=C(Nc1cc(Cl)cc(Cl)c1)Nc1cccc(NC(=O)Nc2cc(Cl)cc(Cl)c2)c1
100	9500	COc1cccc(NC(=O)NC2CCCC(NC(=O)Nc3cccc(OC)c3)C2)c1 (stereo not drawn)
	930	O=C(Nc1cccc(NC(=O)c2cc(Cl)cc(Cl)c2)c1)c1cc(Cl)cc(Cl)c1
	870	O=C(CC(c1ccccc1)c1ccccc1)Nc1cccc(NC(=O)c2cc(Cl)cc(Cl)c2)c1
100		O=C(Nc1cc(Cl)cc(Cl)c1)NC1CCCC(NC(=O)Nc2cc(Cl)cc(Cl)c2)C1 (stereo not drawn)
100		O=C(NCc1cccc2ccccc12)Nc1cccc(NC(=O)NCc2cccc3ccccc23)c1
93	4000	O=C(Nc1cccc(NC(=O)Nc2ccon2)c1)Nc1ccon1
100		O=C(Nc1cccc(NC(=O)Nc2ccc(Br)cc2Br)c1)Nc1ccc(Br)cc1Br
100		Cc1ccc(NC(=O)Nc2cccc(NC(=O)Nc3ccc(C)cc3C)c2)c(C)c1
	1120	O=C(Cc1cccc2ccccc12)Nc1cccc(NC(=O)c2cc(Cl)cc(Cl)c2)c1
22		N#Cc1cccc(NC(=O)NC2CCCC(NC(=O)Nc3cccc(C#N)c3)C2)c1 (stereo not drawn)

inhibition [1] [%]	IC50 [2] [nM]	SMILES
100	590	O=C(Nc1ccc(I)cc1)Nc1cc(NC(=O)Nc2ccc(I)cc2)c(Br)cc1Br
	880	O=C(Cc1ccc2ccccc2c1)Nc1cccc(NC(=O)c2cc(Cl)cc(Cl)c2)c1
100		O=C(NCC(c1ccccc1)c1ccccc1)Nc1cccc(NC(=O)NCC(c2ccccc2)c2ccccc2)c1
19		O=C(NCc1ccccc1)Nc1cccc(NC(=O)NCc2ccccc2)c1
23		CCCCNC(=O)Nc1cccc(NC(=O)NCCCC)c1
	2120	Cc1ccccc1CNC(=O)Nc1cccc(NC(=O)c2cc(Cl)cc(Cl)c2)c1
44		O=C(Cc1ccccc1)Nc1cccc(NC(=O)c2cc(Cl)cc(Cl)c2)c1
	940	O=C(Nc1ccc(C(F)(F)F)cc1)Nc1cccc(NC(=O)c2cc(Cl)cc(Cl)c2)c1
	1410	CCc1ccccc1NC(=O)Nc1cccc(NC(=O)c2cc(Cl)cc(Cl)c2)c1
28		O=C(NC1CCCC(NC(=O)NC23CC4CC(CC(C4)C2)C3)C1)NC12CC3CC(CC(C3)C1)C2 (stereo not drawn)
6		O=C(Nc1cccc(NC(=O)c2cccnc2)c1)c1cccnc1
7		CC(C)(C)NC(=O)NC1CCCC(NC(=O)NC(C)(C)C)C1 (stereo not drawn)
32		O=C(Nc1ccc(Cl)cc1)NC1CCCC(NC(=O)Nc2ccc(Cl)cc2)C1 (stereo not drawn)
8		COc1cccc(NC(=O)Nc2cccc(NC(=O)Nc3cccc(OC)c3)c2)c1
	690	O=C(Nc1cc(Cl)cc(Cl)c1)Nc1cccc(NC(=O)c2cc(Cl)cc(Cl)c2)c1
24		O=C(NC1CCCCC1)NC1CCCC(NC(=O)NC2CCCCC2)C1 (stereo not drawn)
0		O=C(Nc1cccc(NC(=O)Nc2ccccn2)c1)Nc1ccccn1
	620	O=C(Nc1cccc(NC(=O)c2cc(Cl)cc(Cl)c2)c1)Nc1ccc(Br)cc1Br
	480	S=C(Nc1cc(Cl)cc(Cl)c1)Nc1cccc(NC(=S)Nc2cc(Cl)cc(Cl)c2)c1
